Source: patent US8188138B2, “Sulphonylpyrrole hydrochloride salts as histone deacetylases inhibitors” (4SC AG, priority 2005, dated 2012)
pIC50: −log10 of the molar value.

Assays:
[1] = system: HeLa cervical carcinoma cells; test: Cellular cytotoxicity assay (Alamar Blue), HeLa; format: cell-based; conditions: Homo sapiens, 72 h, range stated for the listed group
Protocol: The anti-proliferative activity of the histone deacetylase inhibitory compounds as described herein, was evaluated using the following cell lines: HeLa and HeLa—KB (cervical carcinoma), H460 (non small cell lung cancer), A549 (non-small cell lung cancer), MCF7 (breast carcinoma), MCF10A (normal, non tumorigenic breast epithelial), MDA-MB468 (breast carcinoma), MDA-MB435 (breast carcinoma), MDA-MB231 (breast carcinoma), SKBR-3 (breast carcinoma), SKOV-3 (ovarial carcinoma), A-2780 (ovarial carcinoma), RKO (colon carcinoma), HCT-15 (colon carcinoma), HCT-116 (colon carcinoma), PC3 (prostate carcinoma), BPH1 (benign prostate hyperplasia), AsPC1 (pancreatic carcinoma), Cal27 (tongue carcinoma), A-431 (vulva carcinoma), HeclA (endometrial carcinoma), Saos-2 (osteosarcoma), U87MG (glioblastoma), WM266-4 (melanoma), K562 (chronic myeloid carcinoma), EOL1 (acute hypereosinophilic myeloid leukemia), CCRF-CEM and CCRF-CEM VCR1000 (acute lymphoblastic leukemia sensitive and resistant towards Vincristine). For quantification of cellular proliferation/living cells the Alamar Blue (Resazurin) cell viability assay was applied (O'Brien et al. Eur J Biochem 267, 5421-5426, 2000). In this assay Resazurin is reduced to the fluorescent resorufin by cellular dehydrogenase activity, correlating with viable, proliferating cells. The examples were dissolved as 20 mM solutions in dimethylsulfoxide (DMSO) and subsequently diluted in semi-logarithmic steps. Cell lines were seeded at respective density into 96 well flat bottom plates in a volume of 200 μl per well. 24 hours after seeding 1 μl each of the compound dilutions were added into each well of the 96 well plate. Each compound dilution was tested as quadruplicates. Wells containing untreated control cells were filled with 200 μl DMEM medium containing 0.5% v:v DMSO. The cells were then incubated with the substances for 72 hours at 37° C. in a humidified atmosphere containing 5% carbon dioxide. To determine the viability of the cells, 20 μl of an Resazurin solution (Sigma; 90 mg/l) were added. After 4 hours incubation at 37° C. the fluorescence was measured at an extinction of 544 nm and an emission of 590 nm. For the calculation of the cell viability the emission value from untreated cells was set as 100% viability and the emission rates of treated cells were set in relation to the values of untreated cells. Viabilities were expressed as % values. The corresponding IC50 values of the compounds for cytotoxic activity are determined from the concentration-effect curves by means of non-linear regression.

| Compound | melting point [°C] | pIC50 [1] |
| --- | --- | --- |
| CN(C)c1ccc(S(=O)(=O)n2ccc(/C=C/C(=O)Nc3ccccc3N)c2)cc1 [Compound 8, (E)-N-(2-Amino-phenyl)-3-[1-(4-dimethylamino-benzenesulfonyl)-1H-pyrrol-3-yl]-acrylamide] | – | 4.67 to 6.10 |
| O=C(/C=C/c1ccn(S(=O)(=O)c2ccc(CNCc3cccnc3)cc2)c1)NO [Compound 11, (E)-N-Hydroxy-3-[1-(4-{[(pyridin-3-ylmethyl)-amino]-methyl}-benzenesulfonyl)-1H-pyrrol-3-yl]-acrylamide] | – | 5.30 to 7.15 |
| O=C(/C=C/c1ccn(S(=O)(=O)c2ccc(CNCc3c[nH]c4ccccc34)cc2)c1)NO [Compound 12, (E)-N-Hydroxy-3-[1-(4-{[(1H-indol-3-ylmethyl)-amino]-methyl}-benzenesulfonyl)-1H-pyrrol-3-yl]-acrylamide] | – | 5.30 to 7.15 |
| O=C(/C=C/c1ccn(S(=O)(=O)c2ccc(CNCc3ccccc3)cc2)c1)NO [Compound 13, (E)-3-{1-[4-(Benzylamino-methyl)-benzenesulfonyl]-1H-pyrrol-3-yl}-N-hydroxy-acrylamide] | – | 5.30 to 7.15 |
| CC(C)CNCc1ccc(S(=O)(=O)n2ccc(/C=C/C(=O)NO)c2)cc1 [Compound 14, (E)-N-Hydroxy-3-{1-[4-(isobutylamino-methyl)-benzenesulfonyl]-1H-pyrrol-3-yl}-acrylamide] | – | 5.30 to 7.15 |
| O=C(/C=C/c1ccn(S(=O)(=O)c2ccc(CNCc3ccc4[nH]ccc4c3)cc2)c1)NO [Compound 15, (E)-N-Hydroxy-3-[1-(4-{[(1H-indol-5-ylmethyl)-amino]-methyl}-benzenesulfonyl)-1H-pyrrol-3-yl]-acrylamide] | – | 5.30 to 7.15 |
| O=C(/C=C/c1ccn(S(=O)(=O)c2ccc(CNCc3ccncc3)cc2)c1)NO [Compound 16, (E)-N-Hydroxy-3-[1-(4-{[(pyridin-4-ylmethyl)-amino]-methyl}-benzenesulfonyl)-1H-pyrrol-3-yl]-acrylamide] | – | 5.30 to 7.15 |
| O=C(/C=C/c1ccn(S(=O)(=O)c2ccc(-c3cn[nH]c3)cc2)c1)NO [Compound 19, (E)-N-Hydroxy-3-[1-[4-(1H-pyrazol-4-yl)-benzenesulfonyl]-1H-pyrrol-3-yl]acrylamide] | – | 5.30 to 7.15 |
| Nc1ccccc1NC(=O)/C=C/c1ccn(S(=O)(=O)c2ccc(-c3ccccn3)s2)c1 [Compound 26, (E)-N-(2-Amino-phenyl)-3-[1-(5-pyridin-2-yl-thiophene-2-sulfonyl)-1H-pyrrol-3-yl]-acrylamide] | 171.3 to 174.7 | 5.30 to 7.15 |
| O=C(/C=C/c1ccn(S(=O)(=O)c2ccc(CN3CCOCC3)cc2)c1)NO [Compound 27, (E)-N-Hydroxy-3-[1-(4-morpholin-4-ylmethyl-benzenesulfonyl)-1H-pyrrol-3-yl]-acrylamide] | 168 to 170 | 5.30 to 7.15 |
| O=C(/C=C/c1ccn(S(=O)(=O)c2ccc(CN(CCO)CCc3cc4ccccc4[nH]3)cc2)c1)NO [Compound 28, (E)-N-Hydroxy-3-{1-[4-({(2-hydroxy-ethyl)-[2-(1H-indol-2-yl)-ethyl]-amino}-methyl)-benzenesulfonyl]-1H-pyrrol-3-yl}-acrylamide] | – | 5.30 to 7.15 |

Continued, in another order:

| melting point [°C] | Compound | pIC50 [1] |
| --- | --- | --- |
| 227 to 228.6 | NCc1ccc(S(=O)(=O)n2ccc(/C=C/C(=O)NO)c2)cc1 [Compound 17, (E)-3-[1-(4-Aminomethyl-benzenesulfonyl)-1H-pyrrol-3-yl]-N-hydroxy-acrylamide] | 5.30 to 7.15 |
| 219.3 to 221.4 | O=C(/C=C/c1ccn(S(=O)(=O)c2ccc(-c3ccncc3)cc2)c1)NO [Compound 18, (E)-N-Hydroxy-3-[1-(4-pyridin-4-yl-benzenesulfonyl)-1H-pyrrol-3-yl]-acrylamide] | 5.30 to 7.15 |
| 244.2 to 246.5 | Nc1ccccc1NC(=O)/C=C/c1ccn(S(=O)(=O)c2ccc(-c3ccncc3)cc2)c1 [Compound 20, (E)-N-(2-Amino-phenyl)-3-[1-(4-pyridin-4-yl-benzenesulfonyl)-1H-pyrrol-3-yl]-acrylamide] | 5.30 to 7.15 |
| 199.7 to 202.3 | Nc1ccccc1NC(=O)/C=C/c1ccn(S(=O)(=O)c2ccc(-c3cccnc3)cc2)c1 [Compound 21, (E)-N-(2-Amino-phenyl)-3-[1-(4-pyridin-3-yl-benzenesulfonyl)-1H-pyrrol-3-yl]-acrylamide] | 5.30 to 7.15 |
| 232.3 to 240.9 | Nc1ccccc1NC(=O)/C=C/c1ccn(S(=O)(=O)c2ccc(-c3cn[nH]c3)cc2)c1 [Compound 22, (E)-N-(2-Amino-phenyl)-3-{1-[4-(1H-pyrazol-4-yl)-benzenesulfonyl]-1H-pyrrol-3-yl}-acrylamide] | 5.30 to 7.15 |
| 114 to 159.4 | O=C(/C=C/c1ccn(S(=O)(=O)c2cccc(-c3ccccc3)c2)c1)NO [Compound 23, (E)-3-[1-(Biphenyl-3-sulfonyl)-1H-pyrrol-3-yl]-N-hydroxy-acrylamide] | 5.30 to 7.15 |
| 160.7 to 166.6 | O=C(/C=C/c1ccn(S(=O)(=O)c2ccc(-n3cccn3)cc2)c1)NO [Compound 25, (E)-N-Hydroxy-3-[1-(4-pyrazol-1-yl-benzenesulfonyl)-1H-pyrrol-3-yl]-acrylamide] | 5.30 to 7.15 |
